Results reported in patent US20230115176A1 (Ra Pharmaceuticals, Inc., priority 2019, published 2023).
Converted amounts (≈) assume the structure as drawn.

Legend:
[1] = target: human C5 complement protein (Homo sapiens, UniProt P01031); experiment: Surface plasmon resonance (SPR), immobilized human C5, 37° C. (Example 12, Table 21); type: binding; conditions: where a range of compound concentrations were analyzed, the lowest value obtained
Excerpt: (§1) Compound CU0136 is a racemic mixture of Compound CU0186 and CU0187. Numbers in parenthesis following compound numbers indicate alternate enantiomers (as distinguished by retention time during chromatographical separation).

[2] = target: T1, Human C5 (Homo sapiens, UniProt P01031); experiment: Red blood cell (RBC) hemolysis assay, luminescent (Example 13, Table 22); type: cell-based; conditions: sheep EA cells, […] C5-depleted human serum, 0.5 nM human C5, 1 hour 37° C., luminescence; also: 1.5% C5-depleted human serum
T1 construct: purchased Complement Technology
Excerpt: as §1

[3] = Kinetic solubility in PBS pH 7.4, HPLC-UV (Example 21, Table 27); type: physicochemical; conditions: phosphate buffered saline, aqueous buffer, kinetic from dmso stock, 0.5 M PBS, shaken minimum 24 h at approximately 25° C., HPLC-UV 270 nm
Outline: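 10 mM DMSO stock diluted into 0.05 M PBS pH 7.4 (5% DMSO final), in triplicate, shaken ≥24 h at ~25 °C, then filtered by centrifugation. Supernatant concentration by HPLC-UV at 270 nm against external DMSO standards (15.6–500.0 μM).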

[4] = target: T1, Human C5; experiment: Red blood cell (RBC) hemolysis assay, luminescent (Example 24, Table 29); type: cell-based; conditions: sheep EA cells, […] C5-depleted human serum, 0.5 nM human C5, 1 hour at 37° C., luminescence (Table 29)
Excerpt: Numbers in parenthesis following the compound number indicate alternate enantiomers (as distinguished by retention time during chromatographical separation).

T1 sequence (P01031 19-1676): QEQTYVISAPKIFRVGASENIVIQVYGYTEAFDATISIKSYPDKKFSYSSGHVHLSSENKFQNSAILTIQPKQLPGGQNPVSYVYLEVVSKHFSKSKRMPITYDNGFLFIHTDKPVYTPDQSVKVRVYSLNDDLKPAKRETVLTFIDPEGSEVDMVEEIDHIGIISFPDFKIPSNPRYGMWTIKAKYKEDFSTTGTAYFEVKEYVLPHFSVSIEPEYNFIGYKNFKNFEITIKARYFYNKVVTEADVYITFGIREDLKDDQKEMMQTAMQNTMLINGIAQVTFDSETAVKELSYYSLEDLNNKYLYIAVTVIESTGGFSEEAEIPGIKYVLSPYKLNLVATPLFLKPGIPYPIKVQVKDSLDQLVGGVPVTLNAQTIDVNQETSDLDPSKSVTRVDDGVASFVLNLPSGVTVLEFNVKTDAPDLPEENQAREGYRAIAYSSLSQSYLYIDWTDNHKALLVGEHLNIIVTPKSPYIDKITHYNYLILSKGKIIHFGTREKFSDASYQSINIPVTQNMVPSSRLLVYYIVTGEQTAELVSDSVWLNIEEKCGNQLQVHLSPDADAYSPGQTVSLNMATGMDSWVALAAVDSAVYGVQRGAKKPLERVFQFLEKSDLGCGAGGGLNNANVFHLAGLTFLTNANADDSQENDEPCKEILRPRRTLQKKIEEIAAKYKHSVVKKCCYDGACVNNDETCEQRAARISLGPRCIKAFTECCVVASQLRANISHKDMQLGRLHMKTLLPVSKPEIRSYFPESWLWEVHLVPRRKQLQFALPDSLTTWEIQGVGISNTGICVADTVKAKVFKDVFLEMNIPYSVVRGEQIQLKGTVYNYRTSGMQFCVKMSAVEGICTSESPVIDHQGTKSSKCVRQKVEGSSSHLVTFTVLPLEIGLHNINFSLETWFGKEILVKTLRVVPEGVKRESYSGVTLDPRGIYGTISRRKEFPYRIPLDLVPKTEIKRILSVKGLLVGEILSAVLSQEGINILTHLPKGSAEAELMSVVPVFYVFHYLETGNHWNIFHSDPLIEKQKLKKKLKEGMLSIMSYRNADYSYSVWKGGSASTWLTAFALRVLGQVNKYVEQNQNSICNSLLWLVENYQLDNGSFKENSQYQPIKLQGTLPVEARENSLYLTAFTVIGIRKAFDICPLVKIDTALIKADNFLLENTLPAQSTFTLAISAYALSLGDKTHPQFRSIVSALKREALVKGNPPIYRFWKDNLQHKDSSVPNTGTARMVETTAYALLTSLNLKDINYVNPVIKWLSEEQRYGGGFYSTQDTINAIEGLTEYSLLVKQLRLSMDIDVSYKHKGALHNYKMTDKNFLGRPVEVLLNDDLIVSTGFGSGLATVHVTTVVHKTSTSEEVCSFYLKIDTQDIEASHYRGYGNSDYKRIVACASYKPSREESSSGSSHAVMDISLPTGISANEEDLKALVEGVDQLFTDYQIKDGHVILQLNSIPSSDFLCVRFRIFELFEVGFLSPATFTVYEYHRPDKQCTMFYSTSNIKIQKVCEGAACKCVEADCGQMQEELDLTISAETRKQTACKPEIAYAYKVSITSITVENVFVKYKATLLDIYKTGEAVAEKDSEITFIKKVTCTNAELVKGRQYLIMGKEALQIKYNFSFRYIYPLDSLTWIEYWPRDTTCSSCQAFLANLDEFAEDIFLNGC
human C5 complement protein, sequence (P01031 19-1676): as above

CCCCCOc1cc(N2CCCN(Cc3ccnc4c3ccn4CC(=O)N3CCOCC3)C2=O)ccc1OC [CU0043]
Kd [1]: 16.5 nM | IC50 [2]: 29.5 nM

CCCCCOc1cc(N2CCCN(Cc3ccnc4c3ccn4CC(=O)N3CCOCC3)C2=O)ccc1C1CC1 [CU0044]
Kd [1]: 35.5 nM | IC50 [2]: 87.7 nM

CCCCCOc1cc(N2CCCN([C@@H](C)c3ccnc4c3ccn4CC(=O)N3CCOCC3)C2=O)ccc1OC [CU0045]
Kd [1]: 26 nM | IC50 [2]: 32.8 nM

CCCCCOc1cc(N2CCCN(Cc3ccnc4c3ccn4CC(=O)N3CCOC(CCO)C3)C2=O)ccc1OC (stereo not shown) [CU0046]
Kd [1]: 15.5 nM | IC50 [2]: 38.9 nM

CCCCCOc1cc(N2CCCN(Cc3ccnc4c3ccn4CC(=O)N3CCOC(COC)C3)C2=O)ccc1OC (stereo not shown) [CU0048]
Kd [1]: 18.5 nM | IC50 [2]: 57.3 nM

CCCCCOc1cc(N2CCCN(Cc3ccnc4c3ccn4CC(=O)N3CCOC(C)(COC)C3)C2=O)ccc1OC (stereo not shown) [CU0049]
Kd [1]: 21 nM | IC50 [2]: 44.7 nM

CCCCCOc1cc(N2CCCN(Cc3ccnc4c3ccn4CC(=O)N3CCOC(CN(C)C)C3)C2=O)ccc1OC (stereo not shown) [CU0050]
Kd [1]: 9 nM | IC50 [2]: 18 nM

CCCCCOc1cc(N2CCCN(Cc3ccnc4c3ccn4CC(=O)N3CCOC(CN4CCCC4)C3)C2=O)ccc1OC (stereo not shown) [CU0051]
Kd [1]: 8 nM | IC50 [2]: 45.9 nM

CCCCCOc1cc(N2CCCN([C@@H](C)c3ccnc4c3ccn4CC(=O)N3CCCOCC3)C2=O)ccc1OC [CU0055]
Kd [1]: 10.5 nM | IC50 [2]: 31.2 nM

CCCCCOc1cc(N2CCCN(Cc3ccnc4c3ccn4CC(=O)N3CCN(C4CC4)CC3)C2=O)ccc1OC [CU0056]
Kd [1]: 23 nM | IC50 [2]: 48.8 nM

CCCCCOc1cc(N2CCCN(Cc3ccnc4c3ccn4CC(=O)N3CCN(CCOC)CC3)C2=O)ccc1OC [CU0057]
Kd [1]: 18 nM | IC50 [2]: 22.4 nM

CCCCCOc1cc(N2CCCN(Cc3ccnc4c3ccn4CC(=O)N3CCNC(=O)C3)C2=O)ccc1OC [CU0059]
Kd [1]: 13.5 nM | IC50 [2]: 32.9 nM

CCCCCOc1cc(N2CCCN(Cc3ccnc4c3ccn4CC(=O)N3CCN(C)C(=O)C3)C2=O)ccc1OC [CU0060]
Kd [1]: 14 nM | IC50 [2]: 40.3 nM

CCCCCOc1cc(N2CCCN(Cc3ccnc4c3ccn4CC(=O)N3CCN(C)C(=O)C3)C2=O)ccc1C1CC1 [CU0061]
Kd [1]: 13 nM | IC50 [2]: 52.3 nM

CCCCCOc1cc(N2CCCN(Cc3ccnc4c3ccn4CC(=O)N3CC(=O)N(C)C(C)C3)C2=O)ccc1OC (stereo not shown) [CU0062]
Kd [1]: 17.5 nM | IC50 [2]: 33.4 nM

CCCCCOc1cc(N2CCCN(Cc3cccc4c3ncn4CC(=O)N3CCN(C(C)=O)CC3)C2=O)ccc1OC [CU0063]
Kd [1]: 10.5 nM | IC50 [2]: 28.3 nM

CCCCCOc1cc(N2CCN(Cc3cccc4c3OCO4)C2=O)ccc1OC [CU0064]
Kd [1]: 394 nM | IC50 [2]: 799 nM

CCCCCOc1cc(N2CCCN(Cc3cccc4c3OCO4)C2=O)ccc1OC [CU0065]
Kd [1]: 370 nM | IC50 [2]: 123 nM

CCCCCOc1cc(N2CCCN(Cc3ccc(CC(=O)N4CCCOCC4)cc3OC)C2=O)ccc1OC [CU0100]
Kd [1]: 2.1 nM | IC50 [2]: 21 nM

CCCCCOc1cc(N2CCCN(Cc3ccc(CC(=O)N4CCCN(C)CC4)cc3OC)C2=O)ccc1OC [CU0104]
solubility kinetic [3]: 269 µM (≈ 152 µg/mL) | Kd [1]: 0.6 nM | IC50 [2]: 23.8 nM

CCCCCOc1cc(N2CCCN(Cc3ccc(CC(=O)N4CCOC(COC)C4)cc3OC)C2=O)ccc1OC (stereo not shown) [CU0105]
solubility kinetic [3]: 427 µM (≈ 249 µg/mL) | Kd [1]: 1.9 nM | IC50 [2]: 130 nM

CCCCCOc1cc(N2CCCN(Cc3ccc(CC(=O)N[C@H]4CN(C)C[C@H]4F)cc3OC)C2=O)ccc1OC [CU0106]
solubility kinetic [3]: 453 µM (≈ 259 µg/mL) | Kd [1]: 2 nM | IC50 [2]: 43.9 nM

CCCCCOc1cc(N2CCCN(Cc3ccc(CC(=O)N4CC(=O)N(C)C(C)C4)cc3OC)C2=O)ccc1OC (stereo not shown) [CU0107]
solubility kinetic [3]: 266 µM (≈ 154 µg/mL) | Kd [1]: 2 nM | IC50 [2]: 38 nM

CCCCCOc1cc(N2CCCN(Cc3ccc(CC(=O)N[C@@H]4CNC[C@H]4F)cc3OC)C2=O)ccc1OC [CU0108]
solubility kinetic [3]: > 500 µM | Kd [1]: 1.2 nM | IC50 [2]: 19.5 nM

CCCCCOc1cc(N2CCCN(Cc3ccc(CC(=O)NC4CCN(C(C)C)CC4)cc3OC)C2=O)ccc1OC [CU0109]
solubility kinetic [3]: > 500 µM | Kd [1]: 1.1 nM | IC50 [2]: 18.6 nM

CCCCCOc1cc(N2CCCN(Cc3ccc(CC(=O)NC4CCN(C(C)=O)C4)cc3OC)C2=O)ccc1OC (stereo not shown) [CU0110]
solubility kinetic [3]: 295 µM (≈ 171 µg/mL) | Kd [1]: 2 nM | IC50 [2]: 16.4 nM

CCCC(F)(F)COc1cc(N2CCCN(Cc3ccc(CC(=O)N(C)C)cc3OC)C2=O)ccc1OC [CU0111]
Kd [1]: 3.4 nM | IC50 [2]: 25.2 nM

CCCC(F)(F)COc1cc(N2CCCN(Cc3ccc(CC(=O)N4CCCOCC4)cc3OC)C2=O)ccc1OC [CU0112]
Kd [1]: 2.6 nM | IC50 [2]: 25.9 nM

CCCCCOc1cc(N2CCCN(Cc3ccc(CC(=O)N(C)C)cc3Cl)C2=O)ccc1OC [CU0115]
Kd [1]: 7.8 nM | IC50 [2]: 27.9 nM

CCCCCOc1cc(N2CCCN(Cc3ccc(CC(=O)N4CCOCC4)cc3Cl)C2=O)ccc1OC [CU0116]
Kd [1]: 10.3 nM | IC50 [2]: 23.2 nM

CCCCCOc1cc(N2CCCN(Cc3ccc(CC(=O)N4CCCOCC4)cc3Cl)C2=O)ccc1OC [CU0117]
Kd [1]: 8.3 nM | IC50 [2]: 32.5 nM

CCCCCOc1cc(N2CCCN(Cc3ccc(CC(=O)N4CCCC4)cc3Cl)C2=O)ccc1OC [CU0118]
Kd [1]: 12.8 nM | IC50 [2]: 35.3 nM

CCCCCOc1cc(N2CCCN(Cc3ccc(Cc4nnco4)cc3OC)C2=O)ccc1OC [CU0120]
Kd [1]: 3.6 nM | IC50 [2]: 11.8 nM

CCCCCOc1cc(N2CCCN(Cc3ccc(CN(CC)CC)cc3OC)C2=O)ccc1OC [CU0121]
Kd [1]: 27.5 nM | IC50 [2]: 38.9 nM

CCCCCOc1cc(N2CCCN(Cc3ccc(CCN(CC)CC)cc3OC)C2=O)ccc1OC [CU0122]
Kd [1]: 9.6 nM | IC50 [2]: 17.1 nM

CCCCCOc1cc(N2CCCN(Cc3ccc(CCN4CCCC4)cc3OC)C2=O)ccc1OC [CU0123]
solubility kinetic [3]: 404 µM (≈ 206 µg/mL) | Kd [1]: 4.2 nM | IC50 [2]: 17.1 nM

CCCCCOc1cc(N2CCCN(Cc3ccc(CCN4CCOCC4)cc3OC)C2=O)ccc1OC [CU0124]
Kd [1]: 6.4 nM | IC50 [2]: 26 nM

CCCCCOc1cc(N2CCCN(Cc3cccc(-c4cnn(C5CCN(C)CC5)c4)c3F)C2=O)ccc1OC [CU0127]
Kd [1]: 9.5 nM | IC50 [2]: 30.2 nM

CCCCCOc1cc(N2CCCN(Cc3cc(-c4cnn(C5COC5)c4)ccc3OC)C2=O)ccc1OC [CU0129]
Kd [1]: 23.8 nM | IC50 [2]: 61.5 nM

CCCCCOc1cc(N2CCCN(Cc3cccc4c3c(C)cn4CC(=O)N(C)C)C2=O)ccc1OC [CU0231]
solubility kinetic [3]: 64 µM (≈ 33.3 µg/mL) | Kd [1]: 0.9 nM | IC50 [2]: 20.3 nM

CCCCCOc1cc(N2CCCN(Cc3cccc4c3c(F)cn4CC(=O)N(C)C)C2=O)ccc1OC [CU0232]
solubility kinetic [3]: < 10 µM | Kd [1]: 1.3 nM | IC50 [2]: 21.6 nM

CCCCCOc1cc(N2CCCN(Cc3cccc4c3ccn4CC(=O)N3CCCC3)C2=O)ccc1OC [CU0235]
Kd [1]: 3.8 nM | IC50 [2]: 29.4 nM

CCCCCOc1cc(N2CC[C@H](C)N(Cc3cccc4c3ccn4CC(=O)N3CCNC(=O)C3)C2=O)ccc1OC [SC0003]
IC50 [4]: 9.9 nM

CCCCCOc1cc(N2CC[C@H](C)N(Cc3cccc4c3ccn4CC(=O)N3CCCOCC3)C2=O)ccc1OC [SC0004]
IC50 [4]: 10.5 nM

CCCCCOc1cc(N2CC[C@H](C)N(Cc3cccc4c3ccn4CC(=O)N3CCOC(COC)C3)C2=O)ccc1OC (stereo partly shown) [SC0005]
IC50 [4]: 11.2 nM

CCCCCOc1cc(N2CC[C@H](C)N(Cc3cccc4c3ccn4CC(=O)NC3CC(O)C3)C2=O)ccc1OC (stereo partly shown) [SC0006]
IC50 [4]: 11.2 nM

CCCCCOc1cc(N2CC[C@H](C)N(Cc3cccc4[nH]ccc34)C2=O)ccc1OC [SC0010]
IC50 [4]: 24.7 nM

CCCCCOc1cc(N2CC[C@H](C)N(Cc3cccc4c3ccn4CC(=O)N3CCOCC3)C2=O)ccc1OC [SC0012]
IC50 [4]: 28.5 nM

CCCCCOc1cc(N2CC[C@H](C)N(Cc3cccc4c3ccn4Cc3cccnc3)C2=O)ccc1OC [SC0013]
IC50 [4]: 46.7 nM

CCCCCOc1cc(N2CC[C@@H](C)N(Cc3cccc4c3ccn4CC(=O)N(C)C)C2=O)ccc1OC [SC0014]
IC50 [4]: 146 nM

CCCCCOc1cc(N2CC[C@@H](C)N(Cc3ccnc4[nH]ccc34)C2=O)ccc1OC [SC0015]
IC50 [4]: 222 nM
